These results are taken from PMC4832822, “Investigating the Influence of (Deoxy)fluorination on the Lipophilicity of Non‐UV‐Active Fluorinated Alkanols and Carbohydrates by a New log P Determination Method” (Angewandte Chemie (International Ed. in English), 2015).

Data set [1] in a line: log P determination by 19F NMR shake-flask method with internal fluorinated reference (octanol/water).
Data set [2] can be described thus: milogP calculated using Molinspiration Cheminformatics. The note with it: Table SI14.
Setting [3] is: octanol/water, logP, 19F NMR, 25 °C, average value.
Setting [4] is: Average logP, 25 °C, reference TFE (+0.36).
The mark [5] stands for this setting: error (mean logP to three decimals).
[6] abbreviates: logP, octanol/water, 19F NMR, 25 °C, average value.
[7] abbreviates: logP, single experiment, reference TFE (+0.36).
[8] abbreviates: octanol/water, Average logP, 25 °C, reference TFE (+0.36).
The mark [9] stands for this setting: octanol/water, error (mean logP to three decimals), reference TFE (+0.36).
[10] abbreviates: octanol/water, logP, single experiment, reference TFE (+0.36).
Setting [11] is: single experiment, reference TFE (+0.36).
The mark [12] stands for this setting: octanol/water, Average logP, reference 4,4,4-trifluoro-1-butanol (TB, +0.91EXP).
[13] abbreviates: octanol/water, error (mean logP to three decimals), reference TB (+0.91EXP).
Setting [14] is: octanol/water, logP, single experiment, reference 4,4,4-trifluoro-1-butanol (TB, +0.91EXP).
Setting [15] is: octanol/water, Average logP, 25 °C, reference FE (-0.75).
Setting [16] is: octanol/water, error (mean logP to three decimals), reference FE (-0.75).
[17] abbreviates: single experiment, reference FE (-0.75).

Structures are written as SMILES. Values joined by “and” are separate entries in the source; they are usually repeats but may differ in a detail not shown here. Equal entries are not always repeated.

For the compound `CC(C)(C)[C@H]1CC[C@H](O)[C@H](F)C1` (relative stereo) [compound 42], the logP (usually a log measure of how a compound divides between an organic and an aqueous phase) in data set [1] (setting [3]) came out at 2.63. The “ΔlogP (milogP vs logP exp)” value in data set [2] is recorded as “+0.07”.
Compound `CC(C)(C)[C@H]1CC[C@H](O)[C@@H](F)C1` (relative stereo) [compound 43] returned a logP in data set [1] (setting [3]) of 2.61.
In data set [1] (setting [3]), `CC(C)(C)[C@H]1CC[C@@H](O)[C@H](F)C1` (relative stereo) [compound 44] registered a logP of 3.21. For the same compound, the “ΔlogP (milogP vs logP exp)” value in data set [2] was -0.51.
On to `OCC(F)(F)F` [compound 3, 2,2,2-Trifluoroethanol], for which the “ΔlogP (milogP vs logP exp)” value in data set [2] is listed as “+0.25”.
`OC(CF)CF` [compound 4]: the “Average logP” value in data set [1] (25 °C, reference TFE (+0.36)) is listed as -0.42. Besides, the logP in “physchem” (setting [4]) was -0.42; in “physchem” (setting [5]) it was -0.421; in the data set “physchem” (setting [6]), -0.42; in “physchem” (setting [7]), -0.42.
For `OCCC(F)F` [compound 10], the logP in data set [1] (setting [8]) is 0.04; in data set [1] (setting [9]), 0.038; in data set [1] (setting [10]), 0.033. Moreover, the “ΔlogP (milogP vs logP exp)” value in data set [2] is “+0.48”.
Take `CC(F)(F)CO` [compound 11]: the logP in data set [1] (setting [8]) was 0.11; in data set [1] (setting [9]) it was 0.11; in data set [1] (setting [3]), 0.11; in data set [1] (setting [10]) it was 0.113. Also, in data set [2], the “ΔlogP (milogP vs logP exp)” value is “+0.59”.
Take `CC(C)(O)C(F)(F)F` [compound 14]: the logP in data set [1] (setting [8]), in data set [1] (setting [9]) and in data set [1] (setting [10]) was 1.03 throughout. For the same compound, the “ΔlogP (milogP vs logP exp)” value in data set [2] is “+0.39”.
As to `CC(O)(C(F)(F)F)C(F)(F)F` [compound 15], the logP in the data set “physchem” (setting [5]) and in the data set “physchem” (logP) was 2.08 in each case.
Regarding `CC(O)CCF` (stereo not drawn) [compound 16], the figures for the logP in “physchem” (Average logP), in “physchem” (setting [5]) and in the data set “physchem” (logP) were 0.08, 0.084 and 0.077, respectively.
`CC(O)CC(F)F` (stereo not drawn) [compound 17]: the logP in data set [1] (setting [8]) stood at 0.42; in data set [1] (setting [9]) it was 0.417; in data set [1] (setting [3]), 0.42; in data set [1] (setting [10]), 0.42. Further, the “ΔlogP (milogP vs logP exp)” value in data set [2] is on record as “+0.46”.
Consider `CC(O)CC(F)(F)F` (stereo not drawn) [compound 18], for which, in data set [1] (Table SI12), the “ΔlogP (exp. logP vs logP lit)” value is recorded as “+0.01”. Besides, the lipophilicity (logP) came to 0.72 in data set [1] (setting [8]), 0.721 in data set [1] (setting [9]), 0.71 in data set [1] (setting [3]) and 0.725 in data set [1] (setting [10]). The “ΔlogP (milogP vs logP exp)” value in data set [2] was “+0.53”.
In the case of `CC(O)C(F)(F)C(F)F` (stereo not drawn) [compound 19], the logP in “physchem” (Average logP), in the data set “physchem” (setting [5]) and in the data set “physchem” (logP) was 1.05 each time.
On to `CC(O)C(F)(F)C(F)(F)F` (stereo not drawn) [compound 20], for which the log partition coefficient (logP) in “physchem” (Average logP), in “physchem” (setting [5]) and in “physchem” (logP) was 1.53 each time.
For `OCCCCF` [compound 21], the logP in “physchem” (setting [4]) is 0.09; in the data set “physchem” (error (mean logP to three decimals), reference TFE (+0.36)) it was 0.09; in the data set “physchem” (logP), 0.092; in “physchem” (setting [6]), 0.09; in the data set “physchem” (setting [7]), 0.09.
`CC(F)CCO` (stereo not drawn) [compound 22, 3-fluorobutan-1-ol]: the logP worked out at 0.17 in data set [1] (setting [8]), 0.173 in data set [1] (setting [9]) and 0.166 in data set [1] (setting [10]).
For the compound `OCCC(F)(F)C(F)(F)F` [compound 24], the logP in “physchem” (Average logP) was determined as 1.3; in the data set “physchem” (setting [5]) it was 1.3; in “physchem” (logP), 1.29.
For `C[C@H](O)C[C@@H](C)F` [compound 26], the logP in data set [1] (setting [8]) is 0.48; in data set [1] (setting [9]) it was 0.477; in data set [1] (setting [10]) it was 0.476; in data set [1] (setting [11]) it was “+0.476”. Further, the “ΔlogP (milogP vs logP exp)” value in data set [2] is reported as “+0.49”.
As to `C[C@H](O)C[C@H](C)F` [compound 27], the lipophilicity (logP) in data set [1] (setting [8]) was 0.57; in data set [1] (setting [9]), 0.569; in data set [1] (setting [3]), 0.57; in data set [1] (setting [10]), 0.57. For the same compound, the “ΔlogP (milogP vs logP exp)” value in data set [2] is recorded as “+0.40”.
Take `CC(O)CC(C)(F)F` (stereo not drawn) [compound 28]: the logP in data set [1] (setting [8]) was 0.66; in data set [1] (setting [9]) it was 0.662; in data set [1] (setting [10]), 0.659. Besides, in data set [2], the “ΔlogP (milogP vs logP exp)” value is given as “+0.67”.
With `CCCC(O)C(F)(F)F` (stereo not drawn) [compound 29, 1,1,1-trifluoropentan-2-ol], the logP was 1.82 in data set [1] (setting [8]), 1.82 in data set [1] (setting [9]) and 1.83 in data set [1] (setting [10]).
As to `OCCCCCF` [compound 30, 5-fluoro-1-pentanol], the logP in the data set “physchem” (Average logP) was 0.52; in the data set “physchem” (setting [5]) it was 0.524; in the data set “physchem” (logP), 0.524.
On to `CC(F)CCCO` (stereo not drawn) [compound 31, 4-fluoropentan-1-ol], for which the logP worked out at 0.52 in data set [1] (setting [8]), 0.522 in data set [1] (setting [9]) and 0.517 in data set [1] (setting [10]).
With `CC(F)(F)CCCO` [compound 32, 4,4-difluoropentan-1-ol], the logP in data set [1] (setting [8]) was 0.71; in data set [1] (setting [9]) it was 0.708; in data set [1] (setting [10]), 0.712; in data set [1] (setting [11]), “+0.712”.
For `CCCC(F)CO` (stereo not drawn) [compound 33, 2-fluoropentan-1-ol], the logP was 0.5206 and 0.5160 and 0.5224 and 0.5294 and 0.5210 and 0.5213 in data set [1] (multiple acquisitions of one sample (Table SI7), single acquisition, reference 2,2,2-trifluoroethanol); 0.5205 and 0.5167 and 0.5166 and 0.5215 and 0.5186 in data set [1] (multiple reprocessing of one FID (Table SI8), single reprocessing); 0.87 in data set [1] (setting [8]); 0.868 in data set [1] (setting [9]); 0.521 in data set [1] (octanol/water, logP Average, seven acquisitions (Table SI7)); 0.518 in data set [1] (octanol/water, logP Average, seven reprocessings (Table SI8)). For the same compound, the log partition coefficient (logP) was 0.517 in data set [1] (octanol/water, logP, multiple acquisitions of one sample (Table SI7), single acquisition, reference 2,2,2-trifluoroethanol); 0.513 in data set [1] (octanol/water, logP, multiple reprocessing of one FID (Table SI8), single reprocessing); 0.872 in data set [1] (setting [10]).
On to `OCCCC(F)(F)C(F)F` [compound 34, 4,4,5,5-tetrafluoropentan-1-ol], for which the lipophilicity (logP) worked out at 0.97 in the data set “physchem” (Average logP), 0.974 in the data set “physchem” (setting [5]) and 0.971 in the data set “physchem” (logP).
The matching figures for `OCCCC(F)(F)C(F)(F)F` [compound 36]: 1.72, 1.72 and 1.73.
Turning to `CC[C@H](O)C[C@H](F)CC` [compound 37], the logP in data set [1] (setting [12]), in data set [1] (setting [13]), in data set [1] (setting [3]) and in data set [1] (setting [14]) was 1.58 in each case. Further, the “ΔlogP (milogP vs logP exp)” value in data set [2] is on record as “+0.40”.
Regarding `CC[C@H](O)C[C@@H](F)CC` [compound 38], the logP came to 1.71 in data set [1] (setting [12]), 1.71 in data set [1] (setting [13]), 1.71 in data set [1] (setting [3]) and 1.69 in data set [1] (setting [14]). Besides, the “ΔlogP (milogP vs logP exp)” value in data set [2] is given as “+0.27”.
Turning to `OC[C@H](F)[C@@H](F)CO` [compound 39], the logP is -1.01 in data set [1] (setting [15]); -1.01 in data set [1] (setting [16]); -1.006 and -1.012 in data set [1] (setting [17]). Moreover, the “ΔlogP (milogP vs logP exp)” value in data set [2] was “+0.63”.
As for `OC[C@@H](F)[C@@H](F)CO` [compound 40], the logP in data set [1] (setting [15]) is -0.97; in data set [1] (octanol/water, Average logP, internal validation, reference -1.01EXP) it was -0.98; in data set [1] (octanol/water, error (mean logP to three decimals), internal validation, reference -1.01EXP), -0.98; in data set [1] (setting [16]) it was -0.968; in data set [1] (single experiment, internal validation, reference -1.01EXP) it was -0.981 and -0.984 and -0.975; in data set [1] (setting [17]), -0.957. In data set [2], the “ΔlogP (milogP vs logP exp)” value is on record as “+0.59”.
On to `OCC(F)(F)C(F)(F)CO` [compound 41], for which the logP in “physchem” (Average logP) is -0.11; in “physchem” (setting [5]) it was -0.109.
Consider `CC(C)(C)C1CCC(O)CC1F` (stereo not drawn) [compound 45], for which, in data set [1] (setting [3]), the logP was found to be 2.23.
Take `O=C[C@H](O)[C@@H](F)[C@@H](O)[C@H](O)CO` [compound 46, 3-Fluoro-3-deoxy-D-galactose]: in data set [1] (setting [3]), the logP was -2.47. The “ΔlogP (milogP vs logP exp)” value in data set [2] is listed as “+0.32”.
Regarding `O=C[C@H](F)[C@@H](O)[C@@H](O)[C@H](O)CO` [compound 47, 2-Fluoro-2-deoxy-D-galactose], the logP in data set [1] (setting [3]) is -2.37. Besides, the “ΔlogP (milogP vs logP exp)” value in data set [2] is “+0.44”.
In data set [1] (setting [3]), `O=C[C@H](O)[C@@H](O)[C@H](O)[C@H](O)CF` [compound 48, 6-Fluoro-6-deoxy-D-glucose] yielded a log partition coefficient (logP) of -2.36. Besides, in data set [2], the “ΔlogP (milogP vs logP exp)” value is “+0.65”.
The matching figures for `O=C[C@H](F)[C@@H](O)[C@H](O)[C@H](O)CO` [compound 49, 2-Fluoro-2-deoxy-D-glucose]: -2.21 and “+0.28”.
On to `O=C[C@@H](F)[C@@H](O)[C@H](O)[C@H](O)CO` [compound 50, 2-Fluoro-2-deoxy-D-mannose], for which the logP in data set [1] (setting [3]) was -2.11.
In data set [1] (setting [3]), `OC[C@H]1OC(O)C[C@@H](F)[C@@H]1O` (stereo partly drawn) [compound 51, 2,3-Dideoxy-3-fluoro-D-glucopyranose] came in with a logP of -1.45.
For the compound `OC[C@H]1OC(O)[C@H](F)[C@@H](F)[C@@H]1O` (stereo partly drawn) [compound 52, 2,3-Dideoxy-2,3-difluoro-D-glucopyranose], the logP in data set [1] (octanol/water, log P units more lipophilic than Glc, relative to glucose) was about 2.1; in data set [1] (setting [3]), -1.11; in data set [1] (octanol/water, logP, single experiment, reference FE (-0.75)), -1.11.
As for `OC[C@H]1OC(O)C(F)(F)C(F)(F)[C@@H]1O` (stereo partly drawn) [compound 54, 2,3-Dideoxy-2,2,3,3-tetrafluoro-D-erythro-hexopyranose], the logP in data set [1] (setting [8]) was -0.32; in data set [1] (setting [10]), -0.316.
